Results: patent publication US20250152616A1, “COMPOSITIONS FOR AND METHODS OF TREATING, PREVENTING, AND/OR MITIGATING PAIN” (Duke University, priority 2022, published 2025)

How the values were obtained:
[1] = tested on: mouse model of stabilized unilateral tibial fracture; experiment: Open field activity after tibial fracture; type: in vivo
Description: (§1) The aim of the experiments described herein was to examine the effectiveness of local delivery of adenosine in tibial bone injury to concurrently attenuate fracture/post-surgical pain while promoting healing. All animal work was performed in compliance with the National Institutes of Health (NIH) and institutional guidelines, and the fracture surgery and biomaterial implantation protocols approved by the Institutional Animal Care and Use Committee at Duke University (Protocol Registry Number A151-20-07) were followed. C57BL/6J mice were used to study fracture nociception and the effect of local delivery of adenosine to mitigate pain and promote bone regeneration. Lepr-cre; tdTomato reporter mice were used for tracing of LepR(+) lineage cells after fracture. To determine the effect of adenosine on pain and healing, fracture surgeries were performed and treated immediately with PEGDA-6ACA-PBA macroporous hydrogels loaded with adenosine as treatment group or without adenosine as control group (Zeng Y, et al. (2020) Adv Mater. 32:e1906022). Behavioral tests for pain and limb function were assessed by weight bearing and open field locomotion. A priori power analysis was used to estimate the sample size requiring a statistical power (1−β) of 80% at the significance level of α=5%. On the basis of the power calculation, the indicated number was 8 animals per group for fracture pain and 4 animals per group for fracture healing. Ten animals per group were used to study the effect of adenosine on fracture pain, and 5 animals per group were used to examine the effect of adenosine on fracture healing. The exclusion criteria for experiments were animals that died due to the surgical procedures or shift of the intramedullary pin identified after experimental endpoint post-mortem. No randomization was used and researchers were not blinded. Measurement of adenosine in the circulation was performed by using an adenosine assay. The in vitro functional activity of DRG neurons was assessed by calcium and membrane potential imaging and the expression of proteins were assessed by histology or immunofluorescence imaging, and gene expression by RT-qPCR. Fracture healing was analyzed by microCT and histology. The study design and timeline of animal procedures (pin placement, surgery, therapeutic intervention with and without adenosine, and behavioral tests) are illustrated in FIG. 10A (weight bearing) and FIG. 10A (open field locomotion).
(§2) In all experiments, 12-week-old to 16-week-old C57BL/6J male mice (Jackson Laboratory, Bar Harbor, ME) and Lepr-cre; tdTomato reporter mice were used. The average mouse weight was 25 grams and mice were housed in groups of four to five, and kept on a 12-hr light-dark cycle with lights off at 1800 hr. All animals had ad libitum access to chow (PMI LabDiet 5001) and water. Fracture surgeries were performed as previously described (Zeng Y, et al. (2020) Adv Mater. 32:e1906022). Animals were anesthetized by isoflurane and injected with 1 mg/kg buprenorphine SR-LAB (ZooPharm, Laramie, WY). Each mouse was then placed in a supine position with the right tibia disinfected. After skin incision and reflection, proximal to the right knee, a 0.7-mm pin was inserted from the tibial plateau through the medullary cavity to stabilize the tibia, and a cut was made at the tibial midshaft to induce a transverse fracture. Bupivacaine (0.5%; Hospira, Lake Forest, IL) at ˜1 mg/kg body weight was applied at the surgical site following wound closure using 2 reflex clips (5 mm). For animals treated with control and adenosine-loaded macroporous hydrogels, macroporous hydrogels measuring approximately 5 mm (length)×3 mm (width)×1 mm (thick) containing either 1.05±0.1 mg adenosine (ADO) or no adenosine (CTL) were implanted adjacent to the fractures immediately. […] The animals were treated with the macroporous hydrogels with or without adenosine immediately following the fracture. […]

[2] = tested on: fractured tibiae; experiment: Safranin O histology of fractured tibiae; type: in vivo, mouse; conditions: 21 days post-fracture
Description: In all experiments, 12-week-old to 16-week-old C57BL/6J male mice (Jackson Laboratory, Bar Harbor, ME) and Lepr-cre; tdTomato reporter mice were used. The average mouse weight was 25 grams and mice were housed in groups of four to five, and kept on a 12-hr light-dark cycle with lights off at 1800 hr. All animals had ad libitum access to chow (PMI LabDiet 5001) and water. Fracture surgeries were performed as previously described (Zeng Y, et al. (2020) Adv Mater. 32:e1906022). Animals were anesthetized by isoflurane and injected with 1 mg/kg buprenorphine SR-LAB (ZooPharm, Laramie, WY). Each mouse was then placed in a supine position with the right tibia disinfected. After skin incision and reflection, proximal to the right knee, a 0.7-mm pin was inserted from the tibial plateau through the medullary cavity to stabilize the tibia, and a cut was made at the tibial midshaft to induce a transverse fracture. Bupivacaine (0.5%; Hospira, Lake Forest, IL) at ˜1 mg/kg body weight was applied at the surgical site following wound closure using 2 reflex clips (5 mm). For animals treated with control and adenosine-loaded macroporous hydrogels, macroporous hydrogels measuring approximately 5 mm (length)×3 mm (width)×1 mm (thick) containing either 1.05±0.1 mg adenosine (ADO) or no adenosine (CTL) were implanted adjacent to the fractures immediately. […]

[3] = tested on: mouse model of stabilized unilateral tibial fracture; experiment: Static weight bearing (incapacitance meter) after tibial fracture; type: in vivo; conditions: for ipsilateral weight bearing vs pre-fracture baseline: adenosine-loaded hydrogel at fracture site
Description: as §1, §2

[4] = 7 dpf, sum over 60 min, ratio post-/pre-fracture

Nc1ncnc2c1ncn2[C@@H]1O[C@H](CO)[C@@H](O)[C@H]1O [adenosine]
effect size of treatment on open field parameters ([1]; 7 dpf, effect size r and Cohen's d, all measured parameters): large effect sizes | ambulatory activity counts vs control [1, 4]: significantly higher | ambulatory time vs control [1, 4]: significantly higher | rest time vs control [1, 4]: lower | total distance vs control [1, 4]: significantly higher | vertical activity counts vs control [1, 4]: significantly higher | vertical movement time vs control [1, 4]: significantly higher | open field activity vs control at 5-min intervals (vertical, ambulatory, distance; lower rest time) ([1]; 7 days post-fracture, most of the 5-min intervals, ratio post-/pre-fracture): higher levels of activity | callus size vs controls (histology) [2]: smaller callus size | cortical bone at fracture site vs controls (histology) [2]: more cortical bone across the fracture site | degree of decrease in weight bearing vs untreated group ([3]; 2 dpf and 4 dpf): less | percent change in weight bearing from baseline ([3]; 2 dpf and 4 dpf): significant decreases | percent change in weight bearing from baseline ([3]; 8 dpf): returned to baseline | ipsilateral weight bearing vs pre-fracture baseline ([3]; 2 days post-fracture): significantly decreased | ipsilateral weight bearing vs pre-fracture baseline ([3]; by 8 days post-fracture): returned back to the baseline | effect size of treatment on weight bearing ([3]; each timepoint, effect size r): large effect size | ipsilateral hindlimb weight bearing vs control-treated limbs ([3]; hydrogel with 1.05±0.1 mg adenosine implanted next to fracture, all post-fracture timepoints (2, 4, 8 dpf)): significantly higher
